For data set [1] the following is noted: pharmacologic data and clinical investigations; cited from earlier work.
For data set [2] the following is noted: mice, systemic delivery of ABX; cited from earlier work.
A further data set has as its system H4. The data set can be described thus: Cell viability assay (PTX dose response, CellTiter Glo) in glioma cell lines. In kind it is cell-based, human. The following applies: H4 glioma cell line, PTX dose response curve. Here is the method:
GBM cells were seeded at a density of 5000 cells per well in a 96 well plate. One day after seeding, cells were checked for attachment and confluence (60-70%). […] 72 hours later cell viability was determined by CellTiter Glo (Promega).
On the technique in general: In ATP-based viability assays light output follows the ATP content of the culture.

Data set [3] relates to H4 SSR3 KO and control cells. The data set can be described thus: Microtubule polymerization, alpha-tubulin immunofluorescence in H4 cells. The format is cell-based, human. The following applies: PTX 0.5 μM, 48 h. How it is done:
H4 SSR3 knockout and non-targeting control cells were grown on glass coverslips. […] The cells were then stained with α-tubulin and SSR3 antibodies at 1:100 dilution and the images were acquired on the Nikon A1 (C) confocal microscope. Microtubule bundles per cell cluster were counted for the analysis.

“Also recorded” adds a separate entry of the source.

With `CC(=O)O[C@H]1C(=O)[C@@]2(C)[C@H]([C@H](OC(=O)c3ccccc3)[C@]3(O)C[C@H](OC(=O)[C@H](O)[C@@H](NC(=O)c4ccccc4)c4ccccc4)C(C)=C1C3(C)C)[C@]1(OC(C)=O)CO[C@@H]1C[C@@H]2O` [PTX, Paclitaxel], the “crossing of the BBB” value in data set [1] is listed as “does not cross the BBB”. For the same compound, the “enhancement of brain penetration of PTX by ultrasound therapy” value in data set [2] is 3-5 fold. Besides, the “sensitivity to PTX among glioma cell lines” value with H4 is reported as “most sensitive; also recorded: highest degree of sensitivity”. The “effect on microtubule polymerization” value in data set [3] is “stabilization of microtubule polymerization”.
